From article PMC3935398 (2014)

Test system: Streptococcus mutans (Smu) THF riboswitch aptamer (RNA, riboswitch) GGAGAGUAGAUGAUUCGCGUUAAGUGUGUGUGAAUGGGAUGUCGUCACACAACGAAGCGAGAGCGCGGUGAAUCAUUGCAUCCGCUCCA
Test: ITC
Settings: 70 mM NaCl, 2.5 mM MgCl2, 70 mM Na-HEPES pH 8.0, 1 mM DTT, 37 °C

KD [µM]	KD (PK site only) [µM]	SMILES
8 ± 1		Nc1ncnc2[nH]cnc12
160 ± 20		Nc1nc2c(N)ncnc2[nH]1
	0.5 ± 0.1	Nc1nc(N)c2[nH]cnc2n1
26 ± 3		Nc1ncc2[nH]cnc2n1
